Test results: US20250101025A1, “NOVEL PLK1 DEGRADATION INDUCING COMPOUND” (UPPTHERA, INC., priority 2021, published 2025)

Legend:
Format in all cases: cell-based
MRC-5 cell line = test: Cell viability assay for MRC-5 cell line (EZ-Cytox cytotoxicity experiment); settings: Homo sapiens, MRC5, 120 h; MRC-5 normal cell line, highest concentration 10000 nM, 5 days; N.D. = no cytotoxicity until 10 μM; read-out: Activity: IC50 value to MRC-5 cell line, N.D. cells
Procedure: 4. Cell Viability Assay for MRC-5 Cell Line
(1) Culture of MRC-5 Cell Line
Passage of cultured cells was maintained within P15.
(2) Treatment of Compounds of the Present Invention
Then, it was cultured in 37° C.
(3) Cytotoxicity Experiment
CO2 incubator for 4 hours.

PLK1 = molecular target: T1, PLK1 (Homo sapiens, UniProt P53350); test: Luciferase assay for PLK1 in HeLa LgBit (Plk1-HiBit KI) cell line; settings: compound 300 nM, luminescence after 9 hours
T1 construct: endogenous in cells; host or cells: HeLa LgBit (Plk1-HiBit KI): HeLa stably expressing LgBit, with HiBit knocked in at the endogenous Plk1 locus by CRISPR/Cas9
Procedure: 2. Luciferase Assay for PLK1
(1) Preparation and Culture of HeLa LgBit (Plk1-HiBit KI) Cell Line
A HeLa cell line in which the LgBit vector was transfected and expressed stably was prepared. Then, after constructing gRNA and donor to express the HiBit amino acid sequence behind the C-terminal of the Plk1 gene, which was inherent in the cell, it was inserted into the cell together with a vector capable of expressing CRISPR/Cas9. Only the cells in which the insertion was completed and knock-in had progressed were selected, sub-cultured and used.
(2) Treatment of Compounds of the Present Invention and Method of Luciferase Assay
In the case of HeLa LgBit (Plk1-HiBit KI), the compounds were treated after being released after thymidine block, and the process was as follows. Thymidine (Sigma-Aldrich Cat. No. T9250-5G) was completely dissolved in DW and used in the experiment. For thymidine block, the products were treated with 2 mM of thymidine and then incubated for 24 hours. For release and chemical treatment, the medium was suctioned and washed with 1×PBS. TrypLE™ was added and incubated in 37° C. CO2 incubator for 5 min. Cells neutralized by adding complete media were counted through a counter. For each well of a 96-well culture plate (SPL), 3.3×10^4 cells and a total medium volume of 150 μL were seeded and incubated in a CO2 incubator.
Each cell line was incubated in a CO2 incubator for 18 hours, and Endurazine was added to each well to make up 4% of the total volume. After adding the compound of the present invention in a 96-well white plate (SPL) to a concentration of 300 nM, the wavelength of the plate reader (BMG Labtech, CLARIOstar Plus) was set to […], and then the luminescence was tracked in real time.
In Table 2, Activity represents the ratio of the luminescence value of each Exemplary Compound treatment group to DMSO treatment group (+++: <0.3, ++<0.6, +<0.7).

H526 cell line = test: Cell viability assay for NCI-H526 cell line (EZ-Cytox); settings: Homo sapiens, NCI-H526, 120 h; H526 cells, 3-fold dilutions 3000 nM to 0.46 nM, 5 days
Procedure: (1) Culture of NCI-H526 Cell Line
(2) Treatment of Compounds of the Present Invention and Method of Cell Viability Assay
After treating the compound to each well to make the total volume of 200 μL, it was cultured in a CO2 incubator (Thermo Fisher Science, Cat. No. 4111) for 5 days.
The absorbance of the completely cultured sample was measured by setting the wavelength of a plate reader (BMG Labtech, CLARIOstar Plus) to […], and was measured after shaking for 3 minutes in a plate reader before measurement.
In Table 3, Activity represents IC50 value of each Exemplary Compound treatment group to H526 cell line (A: <30 nM, B: <50 nM, C: <100 nM, D: <200 nM, E: <400 nM).

T1 sequence (P53350 whole entry): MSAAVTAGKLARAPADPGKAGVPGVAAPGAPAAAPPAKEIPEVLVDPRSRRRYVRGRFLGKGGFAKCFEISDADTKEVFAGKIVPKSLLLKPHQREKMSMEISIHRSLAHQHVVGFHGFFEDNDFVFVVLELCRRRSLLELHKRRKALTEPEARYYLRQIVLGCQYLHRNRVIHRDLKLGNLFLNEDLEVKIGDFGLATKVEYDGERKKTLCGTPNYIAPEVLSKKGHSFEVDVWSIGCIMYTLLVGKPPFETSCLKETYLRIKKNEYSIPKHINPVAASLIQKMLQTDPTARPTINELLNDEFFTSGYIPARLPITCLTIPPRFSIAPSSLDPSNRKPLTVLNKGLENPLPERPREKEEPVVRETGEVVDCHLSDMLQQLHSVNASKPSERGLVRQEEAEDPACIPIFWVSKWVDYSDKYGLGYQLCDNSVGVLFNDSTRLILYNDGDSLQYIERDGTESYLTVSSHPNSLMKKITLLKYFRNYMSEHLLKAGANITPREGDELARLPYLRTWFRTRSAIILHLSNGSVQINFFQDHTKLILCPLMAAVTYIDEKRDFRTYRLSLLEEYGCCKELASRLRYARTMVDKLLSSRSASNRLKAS

Activity: ratio of the luminescence value of each Exemplary Compound treatment group to DMSO treatment group (PLK1) | SMILES | IC50 (MRC-5 cell line) [µM] | IC50 (H526 cell line) [µM]
++ (++<0.6) | COc1cc(C(=O)NC2CCN(C(=O)CCCNc3ccc(C(=O)NC4CCC(=O)NC4=O)cc3)CC2)c(F)cc1Nc1ncc2c(n1)N(C1CCCC1)CC(F)(F)C(=O)N2C (centres unmarked) [Compound 1, 4-((9-cyclopentyl-7,7-difluoro-5-methyl-6-oxo-6,7,8,9-tetrahydro-5H-pyrimido[4,5-b][1,4]diazepin-2-yl)amino)-N-(1-(4-((4-((2,6-dioxopiperidin-3-yl)carbamoyl)phenyl)amino)butanoyl)piperidin-4-yl)-2-fluoro-5-methoxybenzamide] | > 10 | < 0.05
+ (+<0.7) | COc1cc(C(=O)NC2CCN(C(=O)CCN3CCN(c4ccc(C(=O)NC5CCC(=O)NC5=O)cc4)CC3)CC2)ccc1Nc1ncc2c(n1)N(C1CCCC1)CC(F)(F)C(=O)N2C (centres unmarked) [Compound 4, 4-((9-cyclopentyl-7,7-difluoro-5-methyl-6-oxo-6,7,8,9-tetrahydro-5H-pyrimido[4,5-b][1,4]diazepin-2-yl)amino)-N-(1-(3-(4-(4-((2,6-dioxopiperidin-3-yl)carbamoyl)phenyl)piperazin-1-yl)propanoyl)piperidin-4-yl)-3-methoxybenzamide] |  | 
++ (++<0.6) | COc1cc(C(=O)NC2CCN(C(=O)CCN3CCN(c4cccc(C(=O)NC5CCC(=O)NC5=O)c4F)CC3)CC2)ccc1Nc1ncc2c(n1)N(C1CCCC1)CC(F)(F)C(=O)N2C (centres unmarked) [Compound 6, 3-(4-(3-(4-(4-((9-cyclopentyl-7,7-difluoro-5-methyl-6-oxo-6,7,8,9-tetrahydro-5H-pyrimido[4,5-b][1,4]diazepin-2-yl)amino)-3-methoxybenzamido)piperidin-1-yl)-3-oxopropyl)piperazin-1-yl)-N-(2,6-dioxopiperidin-3-yl)-2-fluorobenzamide] | > 10 | < 0.05
+ (+<0.7) | COc1cc(C(=O)NC2CCN(C(=O)CCN3CCN(c4ccc(C(=O)NC5CCC(=O)NC5=O)nc4)CC3)CC2)ccc1Nc1ncc2c(n1)N(C1CCCC1)CC(F)(F)C(=O)N2C (centres unmarked) [Compound 7, 5-(4-(3-(4-(4-((9-cyclopentyl-7,7-difluoro-5-methyl-6-oxo-6,7,8,9-tetrahydro-5H-pyrimido[4,5-b][1,4]diazepin-2-yl)amino)-3-methoxybenzamido)piperidin-1-yl)-3-oxopropyl)piperazin-1-yl)-N-(2,6-dioxopiperidin-3-yl)picolinamide] |  | 
++ (++<0.6) | COc1cc(C(=O)NN2CCC(CN3CCN(c4cccc(C(=O)NC5CCC(=O)NC5=O)c4)CC3)CC2)ccc1Nc1ncc2c(n1)N(C1CCCC1)CC(F)(F)C(=O)N2C (centres unmarked) [Compound 9, 4-((9-cyclopentyl-7,7-difluoro-5-methyl-6-oxo-6,7,8,9-tetrahydro-5H-pyrimido[4,5-b][1,4]diazepin-2-yl)amino)-N-(4-((4-(3-((2,6-dioxopiperidin-3-yl)carbamoyl)phenyl)piperazin-1-yl)methyl)piperidin-1-yl)-3-methoxybenzamide] | > 10 | < 0.05
++ (++<0.6) | COc1cc(C(=O)NN2CCC(CCN3CCN(c4cccc(C(=O)NC5CCC(=O)NC5=O)c4)CC3)CC2)ccc1Nc1ncc2c(n1)N(C1CCCC1)CC(F)(F)C(=O)N2C (centres unmarked) [Compound 10, 4-((9-cyclopentyl-7,7-difluoro-5-methyl-6-oxo-6,7,8,9-tetrahydro-5H-pyrimido[4,5-b][1,4]diazepin-2-yl)amino)-N-(4-(2-(4-(3-((2,6-dioxopiperidin-3-yl)carbamoyl)phenyl)piperazin-1-yl)ethyl)piperidin-1-yl)-3-methoxybenzamide] | > 10 | < 0.03
++ (++<0.6) | COc1cc(C(=O)NN2CCC(CCN3CCN(c4cccc(C(=O)NC5CCC(=O)NC5=O)c4)CC3)C2)ccc1Nc1ncc2c(n1)N(C1CCCC1)CC(F)(F)C(=O)N2C (centres unmarked) [Compound 11, 4-((9-cyclopentyl-7,7-difluoro-5-methyl-6-oxo-6,7,8,9-tetrahydro-5H-pyrimido[4,5-b][1,4]diazepin-2-yl)amino)-N-(3-(2-(4-(3-((2,6-dioxopiperidin-3-yl)carbamoyl)phenyl)piperazin-1-yl)ethyl)pyrrolidin-1-yl)-3-methoxybenzamide] | > 10 | < 0.03
+++ (+++: <0.3) | COc1cc(C(=O)NC2CCN(C(=O)CCN3CCN(c4ccc(NC5CCC(=O)NC5=O)cc4)CC3)CC2)ccc1Nc1ncc2c(n1)N(C1CCCC1)CC(F)(F)C(=O)N2C (centres unmarked) [Compound 13, 4-((9-cyclopentyl-7,7-difluoro-5-methyl-6-oxo-6,7,8,9-tetrahydro-5H-pyrimido[4,5-b][1,4]diazepin-2-yl)amino)-N-(1-(3-(4-(4-((2,6-dioxopiperidin-3-yl)amino)phenyl)piperazin-1-yl)propanoyl)piperidin-4-yl)-3-methoxybenzamide] | > 10 | < 0.03
+++ (+++: <0.3) | COc1cc(C(=O)NC2CC3(CCN(CC4CCN(c5ccc(N(C)C6CCC(=O)NC6=O)cc5)CC4)CC3)C2)ccc1Nc1ncc2c(n1)N(C(C)C)CC(F)(F)C(=O)N2C (centres unmarked) [Compound 27, 4-((7,7-difluoro-9-isopropyl-5-methyl-6-oxo-6,7,8,9-tetrahydro-5H-pyrimido[4,5-b][1,4]diazepin-2-yl)amino)-N-(7-((1-(4-((2,6-dioxopiperidin-3-yl)(methyl)amino)phenyl)piperidin-4-yl)methyl)-7-azaspiro[3.5]nonan-2-yl)-3-methoxybenzamide] |  | < 0.03
++ (++<0.6) | COc1cc(C(=O)NN2CCC(N3CC4(CCN(c5ccc(N(C)C6CCC(=O)NC6=O)cc5)CC4)C3)CC2)ccc1Nc1ncc2c(n1)N(C(C)C)CC(F)(F)C(=O)N2C (centres unmarked) [Compound 31, 4-((7,7-difluoro-9-isopropyl-5-methyl-6-oxo-6,7,8,9-tetrahydro-5H-pyrimido[4,5-b][1,4]diazepin-2-yl)amino)-N-(4-(7-(4-((2,6-dioxopiperidin-3-yl)(methyl)amino)phenyl)-2,7-diazaspiro[3.5]nonan-2-yl)piperidin-1-yl)-3-methoxybenzamide] |  | < 0.1
 | COc1cc(C(=O)NC2CC3(CCN(CC4CCN(c5ccc6c(N7CCC(=O)NC7=O)nn(C)c6c5)CC4)CC3)C2)ccc1Nc1ncc2c(n1)N(C1CCCC1)CC(F)(F)C(=O)N2C [Compound 40, 4-((9-cyclopentyl-7,7-difluoro-5-methyl-6-oxo-6,7,8,9-tetrahydro-5H-pyrimido[4,5-b][1,4]diazepin-2-yl)amino)-N-(7-((1-(3-(2,4-dioxotetrahydropyrimidin-1 (2H)-yl)-1-methyl-1H-indazol-6-yl)piperidin-4-yl)methyl)-7-azaspiro[3.5]nonan-2-yl)-3-methoxybenzamide] |  | < 0.03
+ (+<0.7) | COc1cc(C(=O)NN2CCC(N3CC4(CCN(c5cccc6c5n(C)c(=O)n6C5CCC(=O)NC5=O)CC4)C3)CC2)ccc1Nc1ncc2c(n1)N(C(C)C)CC(F)(F)C(=O)N2C (centres unmarked) [Compound 41, 4-((7,7-difluoro-9-isopropyl-5-methyl-6-oxo-6,7,8,9-tetrahydro-5H-pyrimido[4,5-b][1,4]diazepin-2-yl)amino)-N-(4-(7-(1-(2,6-dioxopiperidin-3-yl)-3-methyl-2-oxo-2,3-dihydro-1H-benzo[d]imidazol-4-yl)-2,7-diazaspiro[3.5]nonan-2-yl)piperidin-1-yl)-3-methoxybenzamide] |  | 
